Reference: the supplement of paper PMC10307832

Key:
Experiment in all cases: relative viability (nuclei count vs DMSO), 5 days (fraction); higher = more cells survive
Crenolanib = compound: CC1(COc2ccc3c(c2)ncn3-c2ccc3cccc(N4CCC(N)CC4)c3n2)COC1 [Crenolanib]
Outline: (§1)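 Lung cancer cell lines in 1536-well plates were kept overnight at 37 °C, then pinned with five library-drug doses (not always all listed) spaced by √10 on vehicle-anchored plates. After 5 days without medium change, cells were fixed, permeabilised and Hoechst-stained in one step, imaged at 4×, and nuclei were counted with MetaXpress. Viability is treated-well nuclei divided by vehicle-well nuclei, taken as the median over plates. Plates passed only with control CV below 25% and at least one doubling.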

Tivantinib = compound: O=C1NC(=O)[C@@H](c2cn3c4c(cccc24)CCC3)[C@@H]1c1c[nH]c2ccccc12 [Tivantinib]
Outline: as §1

Crenolanib + Alpelisib = compound: CC1(COc2ccc3c(c2)ncn3-c2ccc3cccc(N4CCC(N)CC4)c3n2)COC1 [Crenolanib] + Cc1nc(NC(=O)N2CCC[C@H]2C(N)=O)sc1-c1ccnc(C(C)(C)C(F)(F)F)c1 [Alpelisib] (partner 2 µM)
Outline: (§2)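 Lung cancer cell lines were seeded in 1536-well plates and dosed by pin tool the next day, with either a single drug or a fixed anchor-drug dose combined with five library-drug doses (not always all listed) spaced in √10 steps. Five days later, one step fixed the cells and stained their nuclei (final 0.05% Triton X-100, 1% formaldehyde, 1 ug/ml Hoechst), and nuclei were counted on 4× images. Relative viability is the nuclei count in treated wells divided by the count in vehicle wells, and each value is the median of duplicate plates.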

Tivantinib + Bortezomib = compound: O=C1NC(=O)[C@@H](c2cn3c4c(cccc24)CCC3)[C@@H]1c1c[nH]c2ccccc12 [Tivantinib] + CC(C)C[C@H](NC(=O)[C@H](Cc1ccccc1)NC(=O)c1cnccn1)B(O)O [Bortezomib] (partner 0.002 µM)
Outline: as §2

Cell Line | relative viability (Crenolanib; 0.01 µM) | relative viability (Crenolanib; 0.03162 µM) | relative viability (Crenolanib; 0.1 µM) | relative viability (Crenolanib; 0.3162 µM) | relative viability (Crenolanib; 1 µM) | relative viability (Tivantinib; 0.01 µM) | relative viability (Tivantinib; 0.03162 µM) | relative viability (Tivantinib; 0.1 µM) | relative viability (Tivantinib; 0.3162 µM) | relative viability (Crenolanib + Alpelisib; first compound 0.01 µM) | relative viability (Crenolanib + Alpelisib; first compound 0.03162 µM) | relative viability (Crenolanib + Alpelisib; first compound 0.1 µM) | relative viability (Crenolanib + Alpelisib; first compound 0.3162 µM) | relative viability (Crenolanib + Alpelisib; first compound 1 µM) | relative viability (Tivantinib + Bortezomib; first compound 0.01 µM) | relative viability (Tivantinib + Bortezomib; first compound 0.03162 µM) | relative viability (Tivantinib + Bortezomib; first compound 0.1 µM) | relative viability (Tivantinib + Bortezomib; first compound 0.3162 µM)
NCI-H1355 | 1.07 | 0.994 | 0.955 | 1.03 | 0.856 | 1.01 | 0.921 | 0.973 | 1.01 | 0.845 | 0.803 | 0.911 | 1.02 | 0.748 | 1.31 | 1.18 | 1.17 | 1.21
NCI-H1651 | 0.952 | 0.928 | 0.958 | 0.989 | 0.932 | 1.02 | 0.938 | 0.874 | 0.971 | 0.89 | 0.903 | 0.893 | 0.982 | 0.867 | 0.957 | 1.03 | 0.918 | 0.942
NCI-H2023 | 1.1 | 1.03 | 0.952 | 1.17 | 0.785 | 1.02 | 0.859 | 0.856 | 0.824 | 0.627 | 0.655 | 0.594 | 0.725 | 0.635 | 1.06 | 0.654 | 0.915 | 0.826
LU99A | 1.1 | 0.974 | 1.04 | 1 | 1.02 | 1.06 | 0.76 | 0.909 | 1.01 | 0.565 | 0.503 | 0.49 | 0.526 | 0.506 | 1.19 | 0.99 | 1.18 | 1.09
NCI-H3122 | 1.02 | 0.989 | 0.98 | 1.1 | 1.1 | 0.986 | 1 | 0.923 | 0.877 | 0.768 | 0.81 | 0.827 | 0.78 | 0.979 | 1.05 | 1.03 | 1.04 | 0.995
LOU-NH91 | 1.02 | 0.939 | 0.929 | 0.891 | 0.906 | 0.932 | 0.946 | 1.02 | 0.747 | 0.784 | 0.755 | 0.635 | 0.641 | 0.694 | 0.479 | 0.496 | 0.522 | 0.473
NCI-H647 | 0.983 | 0.915 | 0.973 | 1 | 0.929 | 1.06 | 0.992 | 0.881 | 0.946 | 1.16 | 1.28 | 1.04 | 1.21 | 1.11 | 0.977 | 0.848 | 0.775 | 1.14
NCI-H838 | 1.03 | 0.975 | 0.946 | 0.964 | 0.749 | 0.952 | 0.962 | 0.798 | 0.932 | 1.02 | 0.991 | 0.968 | 1.22 | 0.846 | 0.712 | 0.61 | 0.683 | 0.786
HARA | 1.07 | 1 | 0.945 | 1 | 1.05 | 0.982 | 0.775 | 0.941 | 0.625 | 0.877 | 0.818 | 0.712 | 0.793 | 0.751 | 1.16 | 1.04 | 1.07 | 1.06
NCI-H1563 | 1.02 | 0.877 | 1 | 0.952 | 0.928 | 1.03 | 0.988 | 0.841 | 0.822 | 0.99 | 0.924 | 1.1 | 1.07 | 0.905 | 0.831 | 0.748 | 0.897 | 0.809
LXF-289 | 0.964 | 0.996 | 0.97 | 1.01 | 0.976 | 1.03 | 1.03 | 0.977 | 1.01 | 1.02 | 1.04 | 1.01 | 1.09 | 1.02 | 1.04 | 1 | 0.922 | 1.04
HOP-62 | 0.986 | 1.02 | 0.977 | 1.1 | 0.933 | 0.975 | 0.787 | 0.972 | 1.02 | 0.851 | 0.985 | 1.03 | 1.06 | 0.941 | 0.948 |  | 0.591 | 1.05
HCC-44 | 1.04 | 0.965 | 0.994 | 0.986 | 0.806 | 1.02 | 1.03 | 1.02 | 0.908 | 0.836 | 0.857 | 0.718 | 0.932 | 0.782 | 0.87 | 0.975 | 0.883 | 0.915
BEN | 0.989 | 0.877 | 0.962 | 0.988 | 0.965 | 1 | 0.854 | 0.873 | 0.786 | 0.917 | 0.895 | 0.904 | 0.972 | 0.97 | 0.75 | 0.561 | 0.744 | 0.824
NCI-H2347 | 1.08 | 0.934 | 0.758 | 1.1 | 1.03 | 1.16 | 0.988 | 1.02 | 1.07 | 1.1 | 1.04 | 0.642 | 1.09 | 1.14 | 1.07 | 1.01 | 1.13 | 1.01
201T | 0.97 | 0.983 | 0.972 | 0.988 | 1.01 | 0.966 | 0.938 | 0.924 | 1.01 | 1.01 | 1.02 | 0.998 | 1.05 | 1.05 | 1.06 | 1.06 | 1.09 | 1.1
NCI-H520 | 0.93 | 0.999 | 1.05 | 0.908 | 1.05 | 1.14 | 0.968 | 0.867 | 0.964 | 0.868 | 0.878 | 0.863 | 0.99 | 0.848 | 0.687 | 0.235 | 0.505 | 0.595
NCI-H727 | 0.949 | 1.05 | 0.873 | 0.943 | 0.909 | 0.941 | 0.897 | 0.802 | 0.631 | 0.609 | 0.671 | 0.563 | 0.665 | 0.627 | 0.751 | 0.772 | 0.867 | 
HCC-366 | 1.03 | 1.03 | 0.958 | 1.05 | 0.998 | 1.02 | 1.03 | 0.994 | 0.955 | 0.484 | 0.655 | 0.351 | 0.428 | 0.406 | 0.996 | 1.16 | 1.03 | 1.03
ABC-1 | 1.08 | 0.876 | 0.855 | 0.985 | 0.795 | 0.887 | 0.98 | 0.821 | 0.805 | 1.06 | 1.13 | 0.772 | 0.999 | 0.898 | 0.287 | 0.243 | 0.337 | 0.301
LCLC-97TM1 | 1.12 | 0.903 | 0.93 | 1.05 | 0.921 | 1.02 | 0.813 | 0.961 | 0.871 | 0.257 | 0.287 | 0.326 | 0.287 | 0.308 | 0.742 | 0.734 | 0.517 | 0.764
NCI-H460 | 1 | 0.998 | 0.975 | 0.995 | 0.956 | 0.986 | 0.971 | 0.98 | 0.999 | 0.571 | 0.54 | 0.41 | 0.709 | 0.265 | 1.06 | 1.04 | 0.975 | 1.36
H3255 | 1.02 | 0.935 | 0.929 | 0.984 | 0.918 | 0.971 | 0.934 | 1 |  | 0.811 | 0.676 | 0.71 | 0.714 | 0.767 | 0.812 | 0.884 | 0.723 | 
